Experimental data taken from patent USRE46718E1, “Compositions comprising Lactobacillus plantarum strains in combination with tannin and new Lactobacillus plantarum strains” (Probi AB, priority 2003, dated 2018).

Experiments:
[1] = system: ischemia/reperfusion injury; test: Lipid peroxidation after ischemia/reperfusion injury in mice (LPO-586 colorimetric assay); type: in vivo, Balb/C mice
From the text: Fifteen Balb/C mice were divided into five groups (3 mice per group) and fed different combinations of normal food, rose hip powder (rich in tannins) and the tannase positive strain Lactobacillus plantarum 299v. The constituents were mixed with some water to get a mushy consistency. Groups 1 and 2 were given normal mouse food, Group 3 got the normal food supplemented with rose hip powder (1.6 g per day), Group 4 got normal food supplemented with L. plantarum 299v (10^10 bacteria per dose) and Group 5 got normal food supplemented with both the rose hip powder and L. plantarum 299v. The mice were fed once a day for 6-8 days before inducing an ischemia/reperfusion injury. The injury was done according to the following dissection protocol: Mice were given 0.15 ml of Ketamine/Xylazine solution (7.85 mg/ml and 2.57 mg/ml, respectively) subcutaneously for anesthesia. […] 1.0 ml PBS was injected into the peritoneal cavity for fluid resuscitation. […]
Lipid peroxidation is a well-established mechanism of cellular injury and is used as an indicator of oxidative stress in cells and tissues. […] LPO-586™ is a colorimetric assay designed to quantify MDA and is based on the reaction of a chromogenic reagent, N-methyl-2-phenylindole with MDA at 45° C. One molecule of MDA reacts with two molecules of N-methyl-2-phenylindole to yield a stable chromophore with maximal absorbance at 586 nm.

[2] = system: Bacterial flora in caecum; test: Bacterial flora in caecum after ischemia/reperfusion injury in mice (viable count); type: in vivo, Balb/C mice; conditions: caecum stool after ischemia/reperfusion
From the text: Fifteen Balb/C mice were divided into five groups (3 mice per group) and fed different combinations of normal food, rose hip powder (rich in tannins) and the tannase positive strain Lactobacillus plantarum 299v. The constituents were mixed with some water to get a mushy consistency. Groups 1 and 2 were given normal mouse food, Group 3 got the normal food supplemented with rose hip powder (1.6 g per day), Group 4 got normal food supplemented with L. plantarum 299v (10^10 bacteria per dose) and Group 5 got normal food supplemented with both the rose hip powder and L. plantarum 299v. The mice were fed once a day for 6-8 days before inducing an ischemia/reperfusion injury. The injury was done according to the following dissection protocol: Mice were given 0.15 ml of Ketamine/Xylazine solution (7.85 mg/ml and 2.57 mg/ml, respectively) subcutaneously for anesthesia. […] 1.0 ml PBS was injected into the peritoneal cavity for fluid resuscitation. […] The abdomen was then closed using a running vicryl 3-0 suture. The animal was allowed to awake from anesthesia and was removed from the warming pad and placed back into the cage. After 4 h and 15 min, the animal was given anesthesia again and tissue and stool samples were obtained in the following order and placed in preweighed tubes: liver tissue, ilium mesentery tissue and cecum stool for bacteriological sampling, and cecum and ilium tissue for colorimetric assay for lipid peroxidaton, and cecum and ilium tissue for histological examination. The samples for bacteriological evaluation were weighed and placed in freezing media and frozen immediately at −70° C. Samples for colorimetric assay (LPO586) were rinsed in PBS, weighed, homogenized, aliquoted and then frozen immediately at −70° C.
Bacteriological evaluation was performed by viable count by anaerobic incubation (BBL Gas Pak Plus, Becton Dickinson and Company, Sparks, Md., USA) on Rogosa-agar (Merck, Darmstadt, Germany) at 37° C. for 3 d, VRBD-agar (Merck, Darmstadt, Germany) at 37° C. for 24 h and Brain heart infusion agar (BHI; Oxoid, Basingstoke, Hampshire, England) at 37° C. for 3 d. Viable count on BHI was also done aerobically.

[3] = system: human colonic carcinoma cell-line HT-29; test: Adhesion to HT-29 cells; type: cell-based; conditions: for Adhesion to HT-29 cells, in salt solution: HBSS, 30 minutes, mean of at least 40 cells; for Capacity to adhere to human colonic mucosa cells, in words: compared with Lactobacillus plantarum 299v
Description: In total 32 L. plantarum strains isolated from human mucosa were tested as to adherence to intestinal epithelial cells of human colonic carcinoma cell-line HT-29 with a mannose-specific binding (method as described by Wold, A, et al, Infection and Immunity, October 1988, p. 2531-2537). Cells of the human adenocarcinoma cell line HT-29 were cultured in Eagle's medium supplemented with 10% fetal calf serum, 2 mM L-glutamine and 50 ig/ml of gentamicin (Sigma Chemical Co., Saint Louis, Mo., USA). A few days after the cells had reached confluence they were detached with EDTA-containing buffer (0.54 mM), washed and suspended in Hank's balanced salt solution (HBSS) at 5×10^6/ml. The bacteria were harvested, washed and suspended in HBSS at 5×10^9/ml (2× an optical density of 1.5 at 597 nm). Cells, bacteria and HBSS were mixed in the ratio 1:1:3 and incubated with end-over-end rotation for 30 minutes at 4EC. The cells were washed once with ice cold PBS and fixed with neutral buffered formalin (Histofix, Histolab, Götebrog, Sweden). The number of bacteria attached to each of at least 40 cells was determined using interference contrast microscopy (500× magnification, Nicon Optophot, with interference contrast equipment, Bergström Instruments, Göteborg, Sweden) and the mean number of bacteria per cell was calculated.

[4] = Screening for tannase activity (breakdown of methylgallate, Osawa and Walsh); type: biochemical; parameters: key to Tannase activity (positive or negative): +: Positive tannase activity is shown as a green to brown coloration of free gallic acid in the cell-suspension after prolonged exposure to oxygen in an alkaline condition; conditions: for Tannase activity (positive or negative): 24 h incubation with methylgallate at 37° C., visual colour; for Quantitative tannase activity (A440/A620): ratio of A440 after 24 h incubation with methylgallate and A620 of cell-suspension at start; for Tannase activity, in words: where comparative, versus Lactobacillus plantarum 299v
Description: The applied method to detect tannase activity has earlier been described by Osawa and Walsh (1993). The detecting principle is that the breakdown of the tannin, methylgallate, is measured by the following procedure:
The test bacterium is cultured anaerobically on MRSagar (Merck, Darmstadt, Germany) for 2 d at 37° C. and then the cells are harvested and suspended in 5 ml 0.9% (w/v) NaCl. The cell-suspension is centrifuged and the cells re-suspended in 10 ml 0.9% NaCl and the absorbance is measured at 620 nm (0.9% NaCl solution as standard). The cell-suspension is diluted until the absorbance is between 0.1 and 0.6 (spectrophotometer, Pharmacia LKB, Novaspec II). After centrifugation, the cells are re-suspended in 1 ml methylgallate-buffer (3.7 g/l methylgallate [Aldrich Chemical Company, Inc., Milwaukee, Wis., USA], 4.5 g/l NaH2PO4, pH=5.0 [sterile filtered]) and the tube is incubated at 37° C. for 24 h. One ml of NaHCO3-buffer (42 g NaHCO3 per litre, pH=8.6) is added and the solution is incubated for 1 h at room temperature, before measurement of the absorbance at 440 nm (NaHCO3-buffer as standard). The colour of the suspension is measured by visual determination.
The colour should be brown or green to be graded as positive tannase activity. A quantitative value of the tannase activity was obtained by the ratio between the absorbance of the cell-suspension (A620; amount of cells) at the start of the incubation with methylgallate versus the absorbance after the 24 h incubation with methylgallate (A440; coloration of free gallic acids after exposure to oxygen in an alkaline condition).

| Substance | MDA (lipid peroxidation), in words ([1]; compared to the positive control (Group 2)) | Malondialdehyde (MDA) per g colonic tissue [median-value] ([1]; mice fed once a day for 6-8 days before 30 min ischemia, sampled 4 h 15 min after reperfusion, Control B 6.3, uninjured 4.3) | Median of viable count, Total aerobes ([2]; BHI agar aerobic) | Median of viable count, Total anaerobes ([2]; BHI agar anaerobic) | Median of viable count, Lactobacilli ([2]; Rogosa-agar) | Median of viable count, Enterobacteriaceae ([2]; VRBD-agar) | Adhesion to HT-29 cells, in salt solution [3] | Adhesion to HT-29 cells, in presence of methyl-mannoside [3] | Tannase activity (positive or negative) [4] | Quantitative tannase activity (A440/A620) [4] | Capacity to adhere to human colonic mucosa cells, in words [3] | Tannase activity, in words [4] |
| --- | --- | --- | --- | --- | --- | --- | --- | --- | --- | --- | --- | --- |
| Lactobacillus plantarum 299v, DSM 9843 [Strain 299v] | decreased the MDA | 5.8 | 4 × 10^9 CFU per a caecal content | 3 × 10^9 CFU per a caecal content | 2 × 10^9 CFU per a caecal content | 3 × 10^3 CFU per a caecal content | 11.7 number of bacteria per cell | 3.4 number of bacteria per cell | + | 6.2 | – | – |
| Lactobacillus plantarum HEAL 9, DSM 15312 | – | – | – | – | – | – | 20 number of bacteria per cell | 2.1 number of bacteria per cell | + | 6.4 | higher capacity to adhere | higher tannase activity |
| Lactobacillus plantarum HEAL 99, DSM 15316 | – | – | – | – | – | – | 20 number of bacteria per cell | 2.0 number of bacteria per cell | + | 6.8 | higher capacity to adhere | higher tannase activity |
| Lactobacillus plantarum HEAL 19, DSM 15313 | – | – | – | – | – | – | 23 number of bacteria per cell | 5.0 number of bacteria per cell | + | 7.4 | higher capacity to adhere | higher tannase activity |
